The target in experiment [1] is Glutamate receptor ionotropic, AMPA (Mus musculus, UniProt P23818+P23819+Q9Z2W8+Q9Z2W9).
Description: Compound was tested for binding affinity against Ionotropic glutamate receptor AMPA using [3H]AMPA as a radioligand.
Experiment [2] deals with Mus musculus. Kind of experiment: In vivo AMPA antagonistic activity was determined by measuring ability to antagonize AMPA induced lethal convulsions in mice at 60 min upon intraperitoneal administration. In kind it is functional. The settings on record: ip, 1 h.
Experiment [3] relates to Mus musculus. Kind of experiment: In vivo AMPA antagonistic activity was determined by measuring ability to antagonize AMPA induced lethal convulsions in mice at 15 min upon intraperitoneal administration. In kind it is functional. The conditions noted are these: ip, 0.25 h.

The structures appear in SMILES notation.

For `Oc1nc2cc(C(F)(F)F)cc(-n3cccc3)c2nc1O`, the Ki (as a rule, a dissociation constant, usually derived from enzyme kinetics or from competition with a known ligand) in experiment [1] is over 25000 nM.
Consider `O=C(O)Cn1c(=O)c(=O)[nH]c2cc(C(F)(F)F)c(-n3cccc3)cc21`, for which the ED50 in experiment [2] and in experiment [3] was over 50 mg/kg each time. In experiment [1], this molecule gave a Ki of 170 nM.
Regarding `O=[N+]([O-])c1cc2nc(O)c(O)nc2cc1-n1cccc1`, the values for the 50% effective dose (ED50) in experiment [2] and in experiment [3] were 31 mg/kg and 21 mg/kg, respectively. Further, the Ki in experiment [1] is 400 nM.
Take `Oc1nc2cc(-n3cccc3)c(C(F)(F)F)cc2nc1O`: the Ki in experiment [1] worked out at 3000 nM.
As to `O=C(O)Cn1c(=O)c(=O)[nH]c2cc([N+](=O)[O-])c(-n3cccc3)cc21`, the ED50 in experiment [2] and in experiment [3] was 30 mg/kg each time. Further, the Ki in experiment [1] turned out to be 70 nM.
On to `O=C(O)CCn1c(=O)c(=O)[nH]c2cc([N+](=O)[O-])c(-n3cccc3)cc21`, for which the ED50 in experiment [2] and in experiment [3] was over 30 mg/kg each time. Also, in experiment [1], the Ki was found to be 330 nM.
In experiment [1], `Oc1nc2cc(Cl)c(-n3cccc3)cc2nc1O` returned a Ki of 20000 nM.
For `COC(=O)Cn1c(=O)c(=O)[nH]c2cc(C(F)(F)F)c(-n3cccc3)cc21`, in experiment [1], the Ki was over 25000 nM.
Still for that read-out and setting: as for `O=c1[nH]c2cc(-n3cccc3)c([N+](=O)[O-])cc2n(C2CCCCC2)c1=O`, the figure is 25000 nM; as for `CNC(=O)Cn1c(=O)c(=O)[nH]c2cc(C(F)(F)F)c(-n3cccc3)cc21`, 20000 nM; as for `CCOC(=O)CCn1c(=O)c(=O)[nH]c2cc(C(F)(F)F)c(-n3cccc3)cc21`, 580 nM.
The same measure, in the same setting: as for `CCNC(=O)Cn1c(=O)c(=O)[nH]c2cc([N+](=O)[O-])c(-n3cccc3)cc21`, the figure is 2700 nM.
In experiment [1], `O=c1[nH]c2cc([N+](=O)[O-])c(-n3cccc3)cc2n(C2CC2)c1=O` yielded a Ki of 3500 nM.
Turning to `CCn1c(=O)c(=O)[nH]c2cc([N+](=O)[O-])c(-n3cccc3)cc21`, the ED50 (in general, the dose at which the effect has come halfway, by size or by number of responders) was 12 mg/kg in experiment [2] and over 50 mg/kg in experiment [3]. The molecule further yielded an inhibition constant Ki in experiment [1] of 850 nM.
In the same order, the values of `O=C(O)CCn1c(=O)c(=O)[nH]c2cc(C(F)(F)F)c(-n3cccc3)cc21` are over 50 mg/kg, over 50 mg/kg and 390 nM.
Turning to `O=c1[nH]c2cc(C(F)(F)F)c(-n3cccc3)cc2n(C2CCCCC2)c1=O`, the affinity in experiment [1], expressed as Ki, was 1600 nM.
Take `O=c1[nH]c2cc([N+](=O)[O-])c(-n3cccc3)cc2n(C2CCCCC2)c1=O`: the figures for the ED50 in experiment [2] and in experiment [3] were 22 mg/kg and over 50 mg/kg, respectively. In experiment [1], the Ki worked out at 400 nM.
In experiment [1], `CS(=O)(=O)c1cc2[nH]c(=O)c(=O)n(C3CCCCC3)c2cc1-n1cccc1` showed a Ki of 15000 nM.
In experiment [1], `O=C(Cn1c(=O)c(=O)[nH]c2cc([N+](=O)[O-])c(-n3cccc3)cc21)NCc1ccccc1` showed an inhibition constant Ki of 20000 nM.
`O=c1[nH]c2cc(Cl)c(-n3cccc3)cc2n(C2CCCCC2)c1=O` yielded a Ki in experiment [1] of 10000 nM.
In experiment [1], `O=C(Cn1c(=O)c(=O)[nH]c2cc([N+](=O)[O-])c(-n3cccc3)cc21)Nc1ccccc1` had a Ki of 2100 nM.
Regarding `CCOC(=O)Cn1c(=O)c(=O)[nH]c2cc([N+](=O)[O-])c(-n3cccc3)cc21`, the ED50 in experiment [2] is 26 mg/kg; in experiment [3] it was over 50 mg/kg. Further, the affinity in experiment [1], expressed as Ki, was 910 nM.
On to `CCC(CC)Cn1c(=O)c(=O)[nH]c2cc([N+](=O)[O-])c(-n3cccc3)cc21`, for which, in experiment [1], the affinity, expressed as Ki, was 6000 nM.
On to `CCOC(=O)CCn1c(=O)c(=O)[nH]c2cc([N+](=O)[O-])c(-n3cccc3)cc21`, for which the ED50 in experiment [2] is 14 mg/kg; in experiment [3], over 30 mg/kg. Besides, the Ki in experiment [1] is 260 nM.
`O=C(CCn1c(=O)c(=O)[nH]c2cc(C(F)(F)F)c(-n3cccc3)cc21)NCc1ccccc1` registered a Ki in experiment [1] of 8000 nM.
Consider `O=C(Cn1c(=O)c(=O)[nH]c2cc([N+](=O)[O-])c(-n3cccc3)cc21)NCCc1ccccc1`, for which, in experiment [1], the Ki is 20000 nM.
As for `NS(=O)(=O)c1cccc2c1c([N+](=O)[O-])cc1nc(O)c(O)nc12` [NBQX], the ED50 in experiment [2] and in experiment [3] was over 50 mg/kg in each case.

Values taken from ChEMBL document CHEMBL1128942, “Pyrrolylquinoxalinediones: A new class of AMPA receptor antagonists” (Bioorg Med Chem Lett, 1996).
